From patent US20240207427A1, “SELECTIVE DRUG RELEASE FROM INTERNALIZED CONJUGATES OF BIOLOGICALLY ACTIVE COMPOUNDS” (priority 2021, published 2024)
Read-outs that look alike come from different tables or passages of the source.

Tests used:
Format in all cases: cell-based
[1] = tested on: renal carcinoma cells (786-O); assay: In vitro potency (CellTiter-Glo, 96 h), 786-O; details: Homo sapiens, 786-0, 96 h
In short: (§1)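 Log-phase cells were seeded for 24 h in RPMI 1640 with 20% FBS, then exposed to serially diluted antibody-drug conjugates or free camptothecin drug for 4 days at 37 °C. Growth inhibition was read by luminescence, and IC50 values were reported in ng/mL and nmol/L.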

[2] = tested on: melanoma cells (A2058); assay: In vitro potency (CellTiter-Glo, 96 h), A2058; details: Homo sapiens, A2058, 96 h
In short: (§2)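 Medium: RPMI 1640 + 20% FBS. Pre-seeding: 24 h. Treatment: ADC or CPT free drug serial dilutions, 96 h, 37 °C. Read-out: luminescence; IC50 in ng/mL and nmol/L.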

[3] = tested on: pancreatic cancer cells (BxPC3); assay: In vitro potency (CellTiter-Glo, 96 h), BxPC3; details: Homo sapiens, BXPC-3, 96 h
In short: (§3)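 Cells in log-phase growth seeded 24 h in RPMI 1640 with 20% FBS, then exposed to serially diluted ADC or CPT free drug for 96 h at 37 °C. Growth inhibition read by CellTiter-Glo luminescence; IC50 reported in ng/mL or nmol/L.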

[4] = tested on: non-small-cell lung cancer cells (Calu1); assay: In vitro potency (CellTiter-Glo, 96 h), Calu1; details: Homo sapiens, Calu-1, 96 h
In short: as §2

[5] = tested on: anaplastic large cell lymphoma cells (DEL); assay: In vitro potency (CellTiter-Glo, 96 h), DEL
In short: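 IC50 (ng/mL or nmol/L) derived from CellTiter-Glo luminescence after 96 h exposure at 37 °C to serial dilutions of ADC or CPT free drug. Log-phase cells had been plated 24 h beforehand in RPMI 1640 containing 20% FBS.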

[6] = tested on: anaplastic large cell lymphoma cells (DELBVR); assay: In vitro potency (CellTiter-Glo, 96 h), DELBVR
In short: as §1

[7] = tested on: anaplastic large cell lymphoma cells (Karpas299); assay: In vitro potency (CellTiter-Glo, 96 h), Karpas299; details: Homo sapiens, KARPAS-299, 96 h
In short: as §1

[8] = tested on: Hodgkin's lymphoma cells (L540cy); assay: In vitro potency (CellTiter-Glo, 96 h), L540cy
In short: as §1

[9] = tested on: Ls174T cells; assay: In vitro potency (CellTiter-Glo, 96 h), Ls174T; details: Homo sapiens, LS174T
In short: as §2

[10] = tested on: breast cancer cells (MDA-MB-231); assay: In vitro potency (CellTiter-Glo, 96 h), MDA-MB-231; details: Homo sapiens, MDA-MB-231, 96 h
In short: as §1

[11] = tested on: acute myeloid leukemia cells (MOLM-13); assay: In vitro potency (CellTiter-Glo, 96 h), MOLM-13; details: Homo sapiens, MOLM-13, 96 h
In short: as §3

[12] = tested on: B-lymphocyte cancer cells (SU-DHL4); assay: In vitro potency (CellTiter-Glo, 96 h), SU-DHL-4; details: Homo sapiens, SU-DHL-4, 96 h
In short: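 Following a 24 h seeding period in 20% FBS-supplemented RPMI 1640, log-phase cells receive graded concentrations of conjugate. Incubation runs for 4 days at 37 °C, after which luminescence is recorded and IC50 calculated in ng/mL.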

[13] = CPT free drugs, Table 24, CellTiter-Glo after 96 h exposure, read-out: IC50 (nmol/L) 786-O
[14] = CPT free drugs, Table 24, CellTiter-Glo after 96 h exposure, read-out: IC50 (nmol/L) A2058
[15] = CPT free drugs, Table 24, CellTiter-Glo after 96 h exposure, read-out: IC50 (nmol/L) BxPC3
[16] = CPT free drugs, Table 24, CellTiter-Glo after 96 h exposure, read-out: IC50 (nmol/L) Calu1
[17] = CPT free drugs, Table 24, CellTiter-Glo after 96 h exposure, read-out: IC50 (nmol/L) DEL
[18] = CPT free drugs, Table 24, CellTiter-Glo after 96 h exposure, read-out: IC50 (nmol/L) DELBVR
[19] = CPT free drugs, Table 24, CellTiter-Glo after 96 h exposure, read-out: IC50 (nmol/L) Karpas299
[20] = CPT free drugs, Table 24, CellTiter-Glo after 96 h exposure, read-out: IC50 (nmol/L) L540cy
[21] = CPT free drugs, Table 24, CellTiter-Glo after 96 h exposure, read-out: IC50 (nmol/L) Ls174T
[22] = CPT free drugs, Table 24, CellTiter-Glo after 96 h exposure, read-out: IC50 (nmol/L) MDAMB231
[23] = CPT free drugs, Table 24, CellTiter-Glo after 96 h exposure, read-out: IC50 (nmol/L) MOLM-13
[24] = CPT free drugs, Table 24, CellTiter-Glo after 96 h exposure, read-out: IC50 (nmol/L) SU-DHL-4
[25] = read-out: IC50 (nmol/L) 786-O, CPT free drugs, Table 24, CellTiter-Glo after 96 h exposure
[26] = read-out: IC50 (nmol/L) BxPC3, CPT free drugs, Table 24, CellTiter-Glo after 96 h exposure
[27] = read-out: IC50 (nmol/L) DEL, CPT free drugs, Table 24, CellTiter-Glo after 96 h exposure
[28] = read-out: IC50 (nmol/L) DELBVR, CPT free drugs, Table 24, CellTiter-Glo after 96 h exposure
[29] = read-out: IC50 (nmol/L) Karpas299, CPT free drugs, Table 24, CellTiter-Glo after 96 h exposure
[30] = read-out: IC50 (nmol/L) L540cy, CPT free drugs, Table 24, CellTiter-Glo after 96 h exposure
[31] = 96 h, read-out: IC50 (nmol/L) Ls174T, CPT free drugs, Table 24, CellTiter-Glo after 96 h exposure
[32] = read-out: IC50 (nmol/L) MDAMB231, CPT free drugs, Table 24, CellTiter-Glo after 96 h exposure
[33] = read-out: IC50 (nmol/L) MOLM-13, CPT free drugs, Table 24, CellTiter-Glo after 96 h exposure
[34] = read-out: IC50 (nmol/L) SU-DHL-4, CPT free drugs, Table 24, CellTiter-Glo after 96 h exposure

SMILES	IC50 [1, 13]	IC50 [2, 14]	IC50 [3, 15]	IC50 [4, 16]	IC50 [5, 17]	IC50 [6, 18]	IC50 [7, 19]	IC50 [8, 20]	IC50 [9, 21]	IC50 [10, 22]	IC50 [11, 23]	IC50 [12, 24]	further results
CC[C@@]1(O)C(=O)OCc2c1cc1n(c2=O)Cc2c-1nc1cc3c(cc1c2CNC1CCN(C(=O)OC(C)(C)C)CC1)OCO3 [Compound 7q]													IC50 ([1]; camptothecin free drug, 96 h, read-out: 786-O IC50): 26 nmol/L; IC50 ([2]; camptothecin free drug, 96 h, read-out: A2058 IC50): 7 nmol/L; IC50 ([3]; camptothecin free drug, 96 h, read-out: BxPC3 IC50): 28 nmol/L; IC50 ([4]; camptothecin free drug, 96 h, read-out: Calu1 IC50): 1000 nmol/L; IC50 ([5]; camptothecin free drug, read-out: DEL IC50): 6 nmol/L; IC50 ([6]; camptothecin free drug, read-out: DELBVR IC50): 13 nmol/L; IC50 ([7]; camptothecin free drug, 96 h, read-out: Karpas299 IC50): 26 nmol/L; IC50 ([8]; camptothecin free drug, read-out: L540cy IC50): 15 nmol/L; IC50 ([9]; camptothecin free drug, 96 h, read-out: Ls174T IC50): 24 nmol/L; IC50 ([10]; camptothecin free drug, 96 h, read-out: MDAMB231 IC50): 131 nmol/L; IC50 ([11]; camptothecin free drug, 96 h, read-out: MOLM-13 IC50): 33 nmol/L; IC50 ([12]; camptothecin free drug, 96 h, read-out: SU-DHL-4 IC50): 17 nmol/L
CC[C@@]1(O)C(=O)OCc2c1cc1n(c2=O)Cc2c-1nc1ccc(O)cc1c2CN [Compound 3a]	52.3 nmol/L	16 nmol/L	135 nmol/L	388 nmol/L	10 nmol/L	14 nmol/L	59.4 nmol/L	18.2 nmol/L	37.1 nmol/L	38.5 nmol/L	58 nmol/L	16.4 nmol/L	
CC[C@@]1(O)C(=O)OCc2c1cc1n(c2=O)Cc2c-1nc1cc(F)c(C)c(Br)c1c2CN [Compound 2q, (S)-11-(aminomethyl)-10-bromo-4-ethyl-8-fluoro-4-hydroxy-9-methyl-1,12-dihydro-14H-pyrano[3′,4′:6,7]indolizino[1,2-b]quinoline-3,14(4H)-dione]													IC50 [1, 25]: 4 nmol/L; IC50 ([2]; read-out: IC50 (nmol/L) A2058): 4.8 nmol/L; IC50 [3, 26]: 50.8 nmol/L; IC50 ([4]; read-out: IC50 (nmol/L) Calu1): 78 nmol/L; IC50 [5, 27]: 1 nmol/L; IC50 [6, 28]: 1 nmol/L; IC50 [7, 29]: 2.6 nmol/L; IC50 [8, 30]: 4 nmol/L; IC50 [9, 31]: 5 nmol/L; IC50 [10, 32]: 5.4 nmol/L; IC50 [11, 33]: 17.3 nmol/L; IC50 [12, 34]: 1.5 nmol/L
CC[C@@]1(O)C(=O)OCc2c1cc1n(c2=O)Cc2c-1nc1ccc(OC)cc1c2CN [Compound 2d]	5 nmol/L	2 nmol/L	12 nmol/L	43 nmol/L	1 nmol/L	1 nmol/L	7 nmol/L	2 nmol/L	3.7 nmol/L	4 nmol/L	25 nmol/L	4 nmol/L	
CC[C@@]1(O)C(=O)OCc2c1cc1n(c2=O)Cc2c-1nc1ccc(F)cc1c2CN [Compound 2b]	27 nmol/L	8 nmol/L	58 nmol/L	76 nmol/L	4 nmol/L	5.7 nmol/L	18 nmol/L	6 nmol/L	14 nmol/L	17 nmol/L	19 nmol/L	13 nmol/L	
CC[C@@]1(O)C(=O)OCc2c1cc1n(c2=O)Cc2c-1nc1cc(OC)c(C)c(F)c1c2CN [Compound 2z]	> 1000 nmol/L	> 1000 nmol/L	> 1000 nmol/L	> 1000 nmol/L	> 1000 nmol/L	> 1000 nmol/L	> 1000 nmol/L	> 1000 nmol/L	> 1000 nmol/L	> 1000 nmol/L	> 1000 nmol/L	> 1000 nmol/L	
CC[C@@]1(O)C(=O)OCc2c1cc1n(c2=O)Cc2c-1nc1cc3c(cc1c2CNCCCO)OCO3 [Compound 7o]													IC50 ([1]; read-out: 786-O IC50, camptothecin free drug, 96 h): 52 nmol/L; IC50 ([2]; read-out: A2058 IC50): 16 nmol/L; IC50 ([3]; read-out: BxPC3 IC50, camptothecin free drug, 96 h): 47 nmol/L; IC50 ([4]; read-out: Calu1 IC50): 839 nmol/L; IC50 ([5]; read-out: DEL IC50, camptothecin free drug, 96 h): 10 nmol/L; IC50 ([6]; read-out: DELBVR IC50, camptothecin free drug, 96 h): 19 nmol/L; IC50 ([7]; read-out: Karpas299 IC50, camptothecin free drug, 96 h): 42 nmol/L; IC50 ([8]; read-out: L540cy IC50, camptothecin free drug, 96 h): 26 nmol/L; IC50 ([9]; 96 h, read-out: Ls174T IC50, camptothecin free drug, 96 h): 25 nmol/L; IC50 ([10]; read-out: MDAMB231 IC50, camptothecin free drug, 96 h): 275 nmol/L; IC50 ([11]; read-out: MOLM-13 IC50, camptothecin free drug, 96 h): 115 nmol/L; IC50 ([12]; read-out: SU-DHL-4 IC50, camptothecin free drug, 96 h): 27 nmol/L
CC[C@@]1(O)C(=O)OCc2c1cc1n(c2=O)Cc2c-1nc1cc(C)c(F)cc1c2CN [Compound 2aa]	265 nmol/L	130 nmol/L	> 1000 nmol/L	> 1000 nmol/L	82 nmol/L	87 nmol/L	380 nmol/L	> 1000 nmol/L	240 nmol/L	> 1000 nmol/L	> 1000 nmol/L	227 nmol/L	
CC[C@@]1(O)C(=O)OCc2c1cc1n(c2=O)Cc2c-1nc1cc(F)c(C)c(F)c1c2CN [Compound 2j]													IC50 [1, 25]: 3 nmol/L; IC50 ([2]; read-out: IC50 (nmol/L) A2058): 2 nmol/L; IC50 [3, 26]: 9 nmol/L; IC50 ([4]; read-out: IC50 (nmol/L) Calu1): 23 nmol/L; IC50 [5, 27]: 1 nmol/L; IC50 [6, 28]: 1 nmol/L; IC50 [7, 29]: 2 nmol/L; IC50 [8, 30]: 1 nmol/L; IC50 [9, 31]: 3 nmol/L; IC50 [10, 32]: 2 nmol/L; IC50 [11, 33]: 9 nmol/L; IC50 [12, 34]: 2 nmol/L
